Experimental data taken from patent US20250099485A1, “COMPOSITIONS FOR PROMOTING HAIR GROWTH” (ESTETRA SRL, priority 2021, published 2025).

Columns and labels:
[1] = test system: mouse lymphoma cell line L5178Y TK^+/−; assay: Generation of reactive oxygen species (ROS); assay type: cell-based; settings: up to 100 μM, 3 h exposure, vs vehicle control
Protocol: The objective of the study was to investigate the generation of reactive oxygen species (ROS) induced by the test item, estetrol (E4), in a mouse lymphoma cell line L5178Y TK^+/−.
L5178Y TK^+/− cells in logarithmic phase of growth were plated in black 96 well cell culture plates at 1×10^4 cells in 90 μL of cell culture media. Controls and test item in triplicate were applied to the cells as a 10× concentrate in 10 μL of a 10% ethanol solution in PBS (final concentration of ethanol on plate was 1%). Cells were incubated for 3 hours at 37° C., 5% CO2, and the generation of ROS was evaluated by fluorescence with a ROS reagent: the ROS reagent was freshly prepared by dissolving one ampoule of reagent (50 μg) in 70 μL DMSO and further diluting this with 2.1 mL of pre-warmed PBS. 10 μL of ROS reagent was added to each well and the plate were shaken for 30 seconds in the dark. The plates were incubated approximately at 37° C., 5% CO2 for 1 h 30 min and fluorescence was read on a plate scanner with excitation at 492 nm and emission at 520 nm.

[2] = Tissue distribution of radioactivity by quantitative whole body autoradiography, non-pigmented rats; assay type: in vivo, rat (female Sprague-Dawley); settings: female non-pigmented rats; for Concentration of radioactivity in tissue, Skin: Non-pigmented / Tissue: Blood ratio, Skin: Non-pigmented: single oral 15 mg/kg
Protocol: Times for analysis were: 0.5, 1, 2, 5, 8, 24 and 48 hours.
Distribution of radioactivity in tissues was determined and quantified using the Fuji FLA-5100 fluorescent image analyser and associated Tina and SeeScan software. Tissue concentrations of radioactivity were determined using calibrated autoradiographic microscales produced by GE Healthcare. A standard curve was produced using the microscales from which tissue concentrations of radioactivity were determined (nCi/g). These values were then converted into pg equivalents/g using the specific activity of the dose formulation.
Radioactivity concentrations are also reported as μg equivalents/g.

[3] = Tissue distribution of radioactivity by quantitative whole body autoradiography, partially pigmented rats; settings: female partially pigmented rats; for Concentration of radioactivity in tissue, Skin: Non-pigmented / Concentration of radioactivity in tissue, Skin: Pigmented / Tissue: Blood ratio, Skin: Non-pigmented / Tissue: Blood ratio, Skin: Pigmented / Total amount of radioactivity in tissue, Skin (non-pigmented) / Total amount of radioactivity in tissue, Skin (pigmented): single oral 15 mg/kg
Protocol: Tissue distribution was determined in female rats (partially pigmented and non-pigmented) using [^14C]-estetrol.
A group of six female Lister Hooded rats each received a single oral dose of [^14C]-estetrol. At each selected time (see below) one animal was killed (by overdose of CO2) followed by immediate snap freezing in hexane/solid CO2. The carcasses were retained for examination of the tissue distribution of radioactivity using the technique of quantitative whole body autoradiography (QWBA).
Times for analysis were: (0.5, 8, and 24 hours, 7, 14 and 35 days).
Frozen carcasses were subjected to whole-body autoradiography.
Where concentrations are reported, radioactivity was assumed to be associated with [^14C]-estetrol or any metabolic products derived from [^14C]-estetrol. The specific activities of the dosed test compounds were used for the calculation of concentrations in all cases. Recoveries of radioactivity are reported as percentage of administered radioactivity (% dose). Radioactivity concentrations are also reported as μg equivalents/g.

[4] = test system: Normal Human Dermal Fibroblasts (NHDFs); assay: Colonization of acellular area (IBIDI gap closure), fibroblasts; assay type: cell-based; settings: 10 ng/ml, both in presence and absence of MMC
Protocol: The study consists in an in vitro assay aiming to evaluate the properties of E4 and E2 at 4 concentrations each on keratinocytes and fibroblasts. In this assay, the measurement of the colonization of a standard acellular surface generated from a confluent monolayer of cells using a dedicated culture device (IBIDI chamber) is performed. The assay is performed in absence and in presence of a proliferation inhibitor to focus on cell proliferation and migration or on migration only, respectively.
Normal Human foreskin-derived Dermal Fibroblast (NHDFs, ATCC) cells were grown in phenol-free Dulbecco's Modified Eagle Medium (DMEM, ThermoFisher Scientific) supplemented with 10% of Foetal Bovine Serum (FBS, ThermoFisher Scientific), L-glutamine and antibiotics. The cells were maintained in a humidified incubator at 37° C. with a 5% CO2 atmosphere.
Cells were plated in 2-well silicone inserts with a defined cell free gap (IBIDI chambers; IBIDI GmbH, 80209) that was previously inserted on 12-well culture plates. This culture device allows to create a standardized 500 μm±100 μm cell free gap for monitoring cell colonization. 24 h after seeding, when the culture reached high confluency, cells in the insert were treated, or not, with mitomycin C (MMC) at 10 μg/ml during 2 h. After these 2 hours, the insert was removed, and cells were treated with E2 or E4 in presence or not of MMC for additional 2 h. Then, if appropriate, the culture medium was removed and cells were treated with E2 or E4 for 22 h, in absence of MMC.
For the assay, keratinocytes were plated in Epilife medium without HKGS and all the treatments were performed in this medium. Fibroblasts were plated in DMEM medium containing only 2.5% of FBS and the treatments were performed in absence of FBS.
E2 and E4 were applied at 4 concentrations each (10^−7M, 10^−8M, 10^−9M, 10^−10M). In parallel, cells were treated with a positive control (HKGS 1% for human keratinocytes and PDGF-BB at 10 ng/ml for human fibroblasts).
To monitor cell colonization and to evaluate the gap closure rate, pictures of the gap were taken after different times: at time 0 h, corresponding to the beginning of the treatment with E2 or E4 and to the removal of the culture insert, at time 6 h and at time 24 h (corresponding to the end of the treatments with E2 or E4). Pictures were taken with a microscope Zeiss (Axiover 25-10× objective) and with a camera Invenio2EIII (DeltaPix—Lux-Optic). The colonized areas were quantified from the pictures by the use of the WimAsis platform—WimScratch software. For each insert, 3 pictures were taken at each time. As each condition was performed in triplicates, it means a total of 9 pictures per condition and per time point of acquisition

OO [hydrogen peroxide, reference compound]
levels of ROS, positive control [1]: tendency to increase the levels of ROS

[^14C]-estetrol
Concentration of radioactivity in tissue, Skin: Non-pigmented ([2]; 0.5 hours): 2.59 microgram equivalents/gram | Tissue: Blood ratio, Skin: Non-pigmented ([2]; 0.5 hours): 1.05 | Concentration of radioactivity in tissue, Skin: Non-pigmented ([2]; 1 hour): 0.771 microgram equivalents/gram | Tissue: Blood ratio, Skin: Non-pigmented ([2]; 1 hour): 0.99 | Concentration of radioactivity in tissue, Skin: Non-pigmented ([2]; 2 hours): 0.465 microgram equivalents/gram | Tissue: Blood ratio, Skin: Non-pigmented ([2]; 2 hours): 1.72 | Concentration of radioactivity in tissue, Skin: Non-pigmented ([2]; 5 hours): 0.189 microgram equivalents/gram | Tissue: Blood ratio, Skin: Non-pigmented ([2]; 5 hours): 1.66 | Concentration of radioactivity in tissue, Skin: Non-pigmented ([2]; 8 hours): 0.361 microgram equivalents/gram | Tissue: Blood ratio, Skin: Non-pigmented ([2]; 8 hours): 1.77 | Concentration of radioactivity in tissue, Skin: Non-pigmented ([2]; 24 hours): BLQ | Concentration of radioactivity in tissue, Skin: Non-pigmented ([2]; 48 hours): BLQ | Concentration of radioactivity in the liver (greatest concentration) ([2]; single oral dose, 0.5 hours): 12.5 μg equivalents/g | Concentration of radioactivity in tissue, Skin: Non-pigmented ([3]; 0.5 hours): 1.89 microgram equivalents/gram | Concentration of radioactivity in tissue, Skin: Pigmented ([3]; 0.5 hours): 2.85 microgram equivalents/gram | Tissue: Blood ratio, Skin: Non-pigmented ([3]; 0.5 hours): 0.71 | Tissue: Blood ratio, Skin: Pigmented ([3]; 0.5 hours): 1.07 | Total amount of radioactivity in tissue, Skin (non-pigmented) ([3]; 0.5 hours): 1.136 % dose administered/tissue | Total amount of radioactivity in tissue, Skin (pigmented) ([3]; 0.5 hours): 1.714 % dose administered/tissue | Concentration of radioactivity in tissue, Skin: Non-pigmented ([3]; 8 hours): 0.090 microgram equivalents/gram | Concentration of radioactivity in tissue, Skin: Pigmented ([3]; 8 hours): 0.163 microgram equivalents/gram | Tissue: Blood ratio, Skin: Non-pigmented ([3]; 8 hours): 0.66 | Tissue: Blood ratio, Skin: Pigmented ([3]; 8 hours): 1.03 | Total amount of radioactivity in tissue, Skin (non-pigmented) ([3]; 8 hours): 0.059 % dose administered/tissue | Total amount of radioactivity in tissue, Skin (pigmented) ([3]; 8 hours): 0.099 % dose administered/tissue | Concentration of radioactivity in tissue, Skin: Non-pigmented ([3]; 24 hours): BLQ | Concentration of radioactivity in tissue, Skin: Pigmented ([3]; 24 hours): 0.113 microgram equivalents/gram | Total amount of radioactivity in tissue, Skin (non-pigmented) ([3]; 24 hours): <0.041 % dose administered/tissue | Total amount of radioactivity in tissue, Skin (pigmented) ([3]; 24 hours): 0.061 % dose administered/tissue | Concentration of radioactivity in tissue, Skin: Non-pigmented ([3]; 7 days): BLQ | Concentration of radioactivity in tissue, Skin: Pigmented ([3]; 7 days): BLQ | Total amount of radioactivity in tissue, Skin (non-pigmented) ([3]; 7 days): <0.043 % dose administered/tissue | Total amount of radioactivity in tissue, Skin (pigmented) ([3]; 7 days): <0.043 % dose administered/tissue | Concentration of radioactivity in tissue, Skin: Non-pigmented ([3]; 14 days): BLQ | Concentration of radioactivity in tissue, Skin: Pigmented ([3]; 14 days): BLQ | Total amount of radioactivity in tissue, Skin (non-pigmented) ([3]; 14 days): <0.038 % dose administered/tissue | Total amount of radioactivity in tissue, Skin (pigmented) ([3]; 14 days): <0.038 % dose administered/tissue | Concentration of radioactivity in tissue, Skin: Non-pigmented ([3]; 35 days): BLQ | Concentration of radioactivity in tissue, Skin: Pigmented ([3]; 35 days): BLQ | Total amount of radioactivity in tissue, Skin (non-pigmented) ([3]; 35 days): <0.041 % dose administered/tissue | Total amount of radioactivity in tissue, Skin (pigmented) ([3]; 35 days): <0.041 % dose administered/tissue | Concentration of radioactivity in the liver (greatest concentration) ([3]; single oral dose, 0.5 hours): 13.7 μg equivalents/g | Concentration of radioactivity in the liver ([3]; single oral dose, 7 days after dosing): 0.410 μg equivalents/g | Concentration of radioactivity, majority of tissues (BLQ) ([3]; single oral dose, by 24 hours): < 0.076 μg equivalents/g

B1: PDGF-BB: positive control at 10 ng/ml for human fibroblasts (protein, UniProt P01127 82-190, looked up)
Platelet-derived growth …: SLGSLTIAEPAMIAECKTRTEVFEISRRLIDRTNANFLVWPPCVEVQRCSGCCNNRNVQCRPTQVQLRPVQVRKIEIVRKKPIFKKATVTLEDHLACKCETVAAARPVT
NHDF colonized area, positive reference [4]: significantly increases the colonized area
